# Source: paper PMC5218480 (PLoS ONE, 2017)
# System: MV-4-11 cells
# Experiment: Gene expression microarray analysis (Affymetrix PrimeView) and GSEA
# Type: cell-based, human
# Set-up: RFU PODN (11730768_x_at) / Fold change /veh PODN (11730768_x_at) / RFU LINC00158 (11744669_a_at) / Fold change /veh LINC00158 (11744669_a_at) / RFU DUSP10 (11751237_a_at) / Fold change /veh DUSP10 (11751237_a_at) / RFU ID3 (11757404_x_at) / Fold change /veh ID3 (11757404_x_at) / RFU PLEKHG5 (11737974_s_at) / Fold change /veh PLEKHG5 (11737974_s_at) / RFU LRRC4B (11730491_at) / Fold change /veh LRRC4B (11730491_at) / RFU GIMAP4 (11747438_a_at) / Fold change /veh GIMAP4 (11747438_a_at) / RFU KRT8 (11758183_x_at) / Fold change /veh KRT8 (11758183_x_at) / RFU CNN1 (11734310_a_at) / Fold change /veh CNN1 (11734310_a_at) / RFU VPS37D (11726825_at) / Fold change /veh VPS37D (11726825_at) / RFU C10orf10 (11716522_x_at) / Fold change /veh C10orf10 (11716522_x_at) / RFU KIR2DL2 /// KIR2DL4 /// KIR2DL5A /// KIR2DL5B /// KIR2DS1 /// KIR2DS2 /// KIR2DS3 /// KIR2DS4 /// KIR3DL3 /// KIR3DL3 /// KIR3DS1 (11738374_at) / Fold change /veh KIR2DL2 /// KIR2DL4 /// KIR2DL5A /// KIR2DL5B /// KIR2DS1 /// KIR2DS2 /// KIR2DS3 /// KIR2DS4 /// KIR3DL3 /// KIR3DL3 /// KIR3DS1 (11738374_at) / RFU C1QL1 (11718748_at) / Fold change /veh C1QL1 (11718748_at) / RFU TMPRSS4 (11747572_a_at) / Fold change /veh TMPRSS4 (11747572_a_at) / RFU HAMP (11756126_x_at) / Fold change /veh HAMP (11756126_x_at) / RFU RNFT2 (11725882_a_at) / Fold change /veh RNFT2 (11725882_a_at) / RFU NR4A2 (11747474_a_at) / Fold change /veh NR4A2 (11747474_a_at) / RFU ABCC12 (11746883_a_at) / Fold change /veh ABCC12 (11746883_a_at) / RFU TMEM136 (11760407_x_at) / Fold change /veh TMEM136 (11760407_x_at) / RFU CLDN22 /// WWC2 (11732394_at) / Fold change /veh CLDN22 /// WWC2 (11732394_at) / RFU HLA-DPB1 (11760878_x_at) / Fold change /veh HLA-DPB1 (11760878_x_at) / RFU SPINT1 (11716480_a_at) / Fold change /veh SPINT1 (11716480_a_at) / RFU GAP43 (11754022_s_at) / Fold change /veh GAP43 (11754022_s_at) / RFU A4GNT (11735810_at) / Fold change /veh A4GNT (11735810_at) / RFU PRB3 (11715151_x_at) / Fold change /veh PRB3 (11715151_x_at) / RFU TUBB4B (11761932_at) / Fold change /veh TUBB4B (11761932_at) / RFU CAPN14 (11732068_a_at) / Fold change /veh CAPN14 (11732068_a_at) / RFU TMCC2 (11721928_a_at) / Fold change /veh TMCC2 (11721928_a_at) / RFU IRGQ (11745062_a_at) / Fold change /veh IRGQ (11745062_a_at) / RFU FAM174B (11720279_a_at) / Fold change /veh FAM174B (11720279_a_at) / RFU TMPRSS4 (11748680_a_at) / Fold change /veh TMPRSS4 (11748680_a_at) / RFU FAM212B (11763350_a_at) / Fold change /veh FAM212B (11763350_a_at) / RFU PLEKHG5 (11743358_a_at) / Fold change /veh PLEKHG5 (11743358_a_at) / RFU ZSCAN30 (11745921_a_at) / Fold change /veh ZSCAN30 (11745921_a_at) / RFU CMKLR1 (11741424_a_at) / Fold change /veh CMKLR1 (11741424_a_at) / RFU LOC101060620 /// MAPK8IP1 (11723275_at) / Fold change /veh LOC101060620 /// MAPK8IP1 (11723275_at) / RFU SPTSSB (11747773_x_at) / Fold change /veh SPTSSB (11747773_x_at) / RFU PRSS12 (11739890_at) / Fold change /veh PRSS12 (11739890_at) / RFU BIN1 (11741810_x_at) / Fold change /veh BIN1 (11741810_x_at) / RFU WNT11 (11732464_a_at) / Fold change /veh WNT11 (11732464_a_at) / RFU C10orf10 (11716521_a_at) / Fold change /veh C10orf10 (11716521_a_at) / RFU C5orf56 (11738089_at) / Fold change /veh C5orf56 (11738089_at) / RFU CYB561 (11721691_x_at) / Fold change /veh CYB561 (11721691_x_at) / RFU ANKRD19P (11752326_a_at) / Fold change /veh ANKRD19P (11752326_a_at) / RFU OR2T12 /// OR2T33 /// OR2T8 (11738714_s_at) / Fold change /veh OR2T12 /// OR2T33 /// OR2T8 (11738714_s_at) / RFU VCAN (11748164_a_at) / Fold change /veh VCAN (11748164_a_at) / RFU JSRP1 (11732532_at) / Fold change /veh JSRP1 (11732532_at) / RFU KRTAP10-11 (11738290_x_at) / Fold change /veh KRTAP10-11 (11738290_x_at) / RFU MYO3A (11730013_a_at) / Fold change /veh MYO3A (11730013_a_at) / RFU EBF3 (11725865_a_at) / Fold change /veh EBF3 (11725865_a_at) / RFU CAMK2N1 (11719241_x_at) / Fold change /veh CAMK2N1 (11719241_x_at) / RFU C5orf56 (11738088_a_at) / Fold change /veh C5orf56 (11738088_a_at) / RFU OLFML3 (11715873_a_at) / Fold change /veh OLFML3 (11715873_a_at) / RFU LOC100653217 /// NTM (11731650_a_at) / Fold change /veh LOC100653217 /// NTM (11731650_a_at) / RFU MAPK11 (11762145_a_at) / Fold change /veh MAPK11 (11762145_a_at) / RFU FIZ1 (11724087_x_at) / Fold change /veh FIZ1 (11724087_x_at) / RFU OASL (11726364_x_at) / Fold change /veh OASL (11726364_x_at) / RFU SOX15 (11748057_x_at) / Fold change /veh SOX15 (11748057_x_at) / RFU CD79A (11719716_a_at) / Fold change /veh CD79A (11719716_a_at) / RFU HIST1H1D (11736915_at) / Fold change /veh HIST1H1D (11736915_at) / RFU CASKIN2 (11723855_a_at) / Fold change /veh CASKIN2 (11723855_a_at) / RFU LOC730098 (11760151_x_at) / Fold change /veh LOC730098 (11760151_x_at) / RFU OR4N2 (11742367_at) / Fold change /veh OR4N2 (11742367_at) / RFU PRRT2 (11749266_a_at) / Fold change /veh PRRT2 (11749266_a_at) / RFU SNX32 (11753110_a_at) / Fold change /veh SNX32 (11753110_a_at) / RFU CDHR5 (11726645_a_at) / Fold change /veh CDHR5 (11726645_a_at) / RFU RCAN1 (11760418_a_at) / Fold change /veh RCAN1 (11760418_a_at) / RFU FAM167A (11723789_a_at) / Fold change /veh FAM167A (11723789_a_at) / RFU FAM26E (11764081_at) / Fold change /veh FAM26E (11764081_at) / RFU ISYNA1 (11749810_s_at) / Fold change /veh ISYNA1 (11749810_s_at) / RFU ACY1 (11761880_at) / Fold change /veh ACY1 (11761880_at) / RFU 11764098_at / Fold change /veh 11764098_at / RFU SAMD14 (11745864_x_at) / Fold change /veh SAMD14 (11745864_x_at) / RFU NPB (11741838_a_at) / Fold change /veh NPB (11741838_a_at) / RFU TMPRSS6 (11731388_a_at) / Fold change /veh TMPRSS6 (11731388_a_at) / RFU KRTAP10-2 (11738614_at) / Fold change /veh KRTAP10-2 (11738614_at) / RFU ARHGAP8 /// PRR5-ARHGAP8 (11727945_x_at) / Fold change /veh ARHGAP8 /// PRR5-ARHGAP8 (11727945_x_at) / RFU KRTAP5-7 /// NADSYN1 (11734609_at) / Fold change /veh KRTAP5-7 /// NADSYN1 (11734609_at) / RFU RASL12 (11751679_a_at) / Fold change /veh RASL12 (11751679_a_at) / RFU CDKN2B (11736163_a_at) / Fold change /veh CDKN2B (11736163_a_at) / RFU PRF1 (11729649_at) / Fold change /veh PRF1 (11729649_at) / RFU, ZNF638 /// ZNF638-IT1 / Fold change vs veh, ZNF638 /// ZNF638-IT1 / RFU, PANK3 / Fold change vs veh, PANK3 / RFU, SH3YL1 / Fold change vs veh, SH3YL1 / RFU, ZEB2 / Fold change vs veh, ZEB2 / RFU, NRIP1 / Fold change vs veh, NRIP1 / RFU, PTTG1IP / Fold change vs veh, PTTG1IP / RFU, CAPN2 / Fold change vs veh, CAPN2 / RFU, MED14 / Fold change vs veh, MED14 / RFU, SNORA58 / Fold change vs veh, SNORA58 / RFU, C1orf63 / Fold change vs veh, C1orf63 / RFU, LRRFIP1 / Fold change vs veh, LRRFIP1 / RFU, NDUFAF7 / Fold change vs veh, NDUFAF7 / RFU, SLC12A2 / Fold change vs veh, SLC12A2 / RFU, IBTK / Fold change vs veh, IBTK / RFU, ESF1 / Fold change vs veh, ESF1 / Fold change vs veh, TMEM50B / RFU, TAOK1 / Fold change vs veh, TAOK1 / RFU, ACBD3 / Fold change vs veh, ACBD3 / RFU, TMA16 / Fold change vs veh, TMA16 / RFU, RWDD3 / Fold change vs veh, RWDD3 / RFU, BCAT1 / Fold change vs veh, BCAT1 / RFU, EDEM3 / Fold change vs veh, EDEM3 / RFU, TMEM33 / Fold change vs veh, TMEM33 / RFU, WDR75 / Fold change vs veh, WDR75 / RFU, AHCTF1 / Fold change vs veh, AHCTF1 / RFU, TFRC / Fold change vs veh, TFRC / RFU, ZDHHC17 / Fold change vs veh, ZDHHC17 / RFU, NOM1 / Fold change vs veh, NOM1 / RFU, ARL8B / Fold change vs veh, ARL8B / RFU, ZBTB11 / Fold change vs veh, ZBTB11 / RFU, TAMM41 / Fold change vs veh, TAMM41 / RFU, KIAA1704 /// LOC100996395 / Fold change vs veh, KIAA1704 /// LOC100996395 / RFU, ING1 / Fold change vs veh, ING1 / RFU, TRMT61B / Fold change vs veh, TRMT61B / RFU, FUBP3 / Fold change vs veh, FUBP3 / RFU, TP53 / Fold change vs veh, TP53 / RFU, TNKS2 / Fold change vs veh, TNKS2 / RFU, ZFP14 / Fold change vs veh, ZFP14 / RFU, ACTR2 / Fold change vs veh, ACTR2 / RFU, PPP3R1 / Fold change vs veh, PPP3R1 / RFU, PIK3R1 / Fold change vs veh, PIK3R1 / RFU, HNRNPA1 / Fold change vs veh, HNRNPA1 / RFU, RNF170 / Fold change vs veh, RNF170 / RFU, ZNF28 / Fold change vs veh, ZNF28 / RFU, RNGTT / Fold change vs veh, RNGTT / RFU, OGT / Fold change vs veh, OGT / RFU, BRD1 / Fold change vs veh, BRD1 / RFU, MARS / Fold change vs veh, MARS / RFU, ZNF655 / Fold change vs veh, ZNF655 / RFU, FAHD1 / Fold change vs veh, FAHD1 / RFU, BDP1 / Fold change vs veh, BDP1 / RFU, LRRCC1 / Fold change vs veh, LRRCC1 / RFU, ARID1A / Fold change vs veh, ARID1A / RFU, ZNF146 / Fold change vs veh, ZNF146 / RFU, ZNF330 / Fold change vs veh, ZNF330 / RFU, GPN3 / Fold change vs veh, GPN3 / RFU, C9orf123 / Fold change vs veh, C9orf123 / RFU, N4BP2L2 / Fold change vs veh, N4BP2L2 / RFU, ARFIP1 / Fold change vs veh, ARFIP1 / RFU, FAM179B / Fold change vs veh, FAM179B / RFU, BCL10 / Fold change vs veh, BCL10 / RFU, UHRF1BP1L / Fold change vs veh, UHRF1BP1L / RFU, BET1 / Fold change vs veh, BET1 / RFU, CNOT2 / Fold change vs veh, CNOT2 / RFU, ZNF268 / Fold change vs veh, ZNF268 / Fold change vs veh, ZNF507 / RFU, DGCR2 / Fold change vs veh, DGCR2 / RFU, WDSUB1 / Fold change vs veh, WDSUB1 / Fold change vs veh, HSP90B1 /// MIR3652 / RFU, ADSS / Fold change vs veh, ADSS / RFU, GK / Fold change vs veh, GK / RFU, ZNF148 / Fold change vs veh, ZNF148 / RFU, TAF9 / Fold change vs veh, TAF9 / RFU, SLC1A5 / Fold change vs veh, SLC1A5 / RFU, SLMO2 / Fold change vs veh, SLMO2 / RFU, ABCC4 / Fold change vs veh, ABCC4 / RFU, LOC101060439 /// RAP1B / Fold change vs veh, LOC101060439 /// RAP1B / RFU, RFX7 / Fold change vs veh, RFX7 / RFU, GTPBP10 / Fold change vs veh, GTPBP10 / RFU, CNEP1R1 / Fold change vs veh, CNEP1R1 / RFU, BIVM-ERCC5 /// ERCC5 / Fold change vs veh, BIVM-ERCC5 /// ERCC5 / RFU, ILF3 / Fold change vs veh, ILF3 / RFU 11762660_at / Fold change /veh 11762660_at / RFU VCAN (11757783_s_at) / Fold change /veh VCAN (11757783_s_at) / RFU DDX43 (11728927_at) / Fold change /veh DDX43 (11728927_at) / RFU KRT8 (11758188_x_at) / Fold change /veh KRT8 (11758188_x_at) / RFU NKD1 (11759106_at) / Fold change /veh NKD1 (11759106_at) / RFU SRD5A1 (11742802_a_at) / Fold change /veh SRD5A1 (11742802_a_at) / RFU TPSAB1 /// TPSB2 (11721975_s_at) / Fold change /veh TPSAB1 /// TPSB2 (11721975_s_at) / RFU GSTM3 (11746129_a_at) / Fold change /veh GSTM3 (11746129_a_at) / RFU IL23R (11737362_x_at) / Fold change /veh IL23R (11737362_x_at) / RFU TMEM51 (11727254_a_at) / Fold change /veh TMEM51 (11727254_a_at) / RFU PIWIL2 (11732686_x_at) / Fold change /veh PIWIL2 (11732686_x_at) / RFU ORM1 (11744905_x_at) / Fold change /veh ORM1 (11744905_x_at) / RFU CCDC152 (11743942_at) / Fold change /veh CCDC152 (11743942_at) / RFU ECM1 (11717891_a_at) / Fold change /veh ECM1 (11717891_a_at) / RFU IL23R (11748794_a_at) / Fold change /veh IL23R (11748794_a_at) / RFU TNFAIP8L3 (11732012_x_at) / Fold change /veh TNFAIP8L3 (11732012_x_at) / RFU MBOAT4 (11741988_at) / Fold change /veh MBOAT4 (11741988_at) / RFU 11764193_at / Fold change /veh 11764193_at / RFU TMEM53 (11763286_at) / Fold change /veh TMEM53 (11763286_at) / RFU MAGEB2 (11727129_at) / Fold change /veh MAGEB2 (11727129_at) / RFU TMEM200A (11744735_a_at) / Fold change /veh TMEM200A (11744735_a_at) / RFU CCDC152 (11751479_a_at) / Fold change /veh CCDC152 (11751479_a_at) / RFU FAM211A (11726209_a_at) / Fold change /veh FAM211A (11726209_a_at) / RFU RGS16 (11746705_a_at) / Fold change /veh RGS16 (11746705_a_at) / RFU VCAN (11755009_s_at) / Fold change /veh VCAN (11755009_s_at) / RFU RHOB (11743442_s_at) / Fold change /veh RHOB (11743442_s_at) / RFU RGS16 (11720943_a_at) / Fold change /veh RGS16 (11720943_a_at) / RFU RGS16 (11720944_at) / Fold change /veh RGS16 (11720944_at) / RFU, VPS4B / Fold change vs veh, VPS4B / RFU, CREB1 / Fold change vs veh, CREB1 / RFU, DNAJC13 / Fold change vs veh, DNAJC13 / RFU, GNAQ / Fold change vs veh, GNAQ / RFU, CDK5R1 / Fold change vs veh, CDK5R1 / RFU, ZRANB3 / Fold change vs veh, ZRANB3 / RFU, CUL4A / Fold change vs veh, CUL4A / RFU, CCNY / Fold change vs veh, CCNY / RFU, UFL1 / Fold change vs veh, UFL1 / RFU, COG3 / Fold change vs veh, COG3 / RFU, DIAPH2 / Fold change vs veh, DIAPH2 / RFU, SKA2 / Fold change vs veh, SKA2 / RFU, AFF3 / Fold change vs veh, AFF3 / RFU, LMF1 / Fold change vs veh, LMF1 / RFU, IPO11 / Fold change vs veh, IPO11 / RFU, DFFB / Fold change vs veh, DFFB / RFU, FOXP1 / Fold change vs veh, FOXP1 / RFU, CARD8 / Fold change vs veh, CARD8 / RFU, STRN3 / Fold change vs veh, STRN3 / RFU, ADK / Fold change vs veh, ADK / RFU, RASSF2 / Fold change vs veh, RASSF2 / RFU, WIPF1 / Fold change vs veh, WIPF1 / RFU, LARP1B / Fold change vs veh, LARP1B / RFU, RASA1 / Fold change vs veh, RASA1 / RFU, RB1 / Fold change vs veh, RB1 / RFU, PPFIA1 / Fold change vs veh, PPFIA1 / RFU, MAT2A / Fold change vs veh, MAT2A / RFU, CCT5 / Fold change vs veh, CCT5 / RFU, WDR92 / Fold change vs veh, WDR92 / RFU, CUX1 / Fold change vs veh, CUX1 / RFU, TTC7A / Fold change vs veh, TTC7A / RFU, TMEM135 / Fold change vs veh, TMEM135 / RFU, DEPTOR / Fold change vs veh, DEPTOR / RFU, CPM / Fold change vs veh, CPM / RFU, DNAJB6 / Fold change vs veh, DNAJB6 / RFU, CACNA2D3 / Fold change vs veh, CACNA2D3 / RFU, DTX4 / Fold change vs veh, DTX4 / RFU, TFCP2 / Fold change vs veh, TFCP2 / RFU, GMCL1 /// GMCL1P1 / Fold change vs veh, GMCL1 /// GMCL1P1 / RFU, AEBP2 / Fold change vs veh, AEBP2 / RFU, SNHG1 /// SNORD22 /// SNORD25 /// SNORD26 /// SNORD27 /// SNORD28 /// SNORD29 /// SNORD31 / Fold change vs veh, SNHG1 /// SNORD22 /// SNORD25 /// SNORD26 /// SNORD27 /// SNORD28 /// SNORD29 /// SNORD31 / Fold change (Aza/veh), C12orf56 (ProbeSet 11735607_a_at) / Fold change (ACY-1035/veh), C12orf56 (ProbeSet 11735607_a_at) / Fold change (Aza/veh), FGFR1OP (ProbeSet 11751329_s_at) / Fold change (ACY-1035/veh), FGFR1OP (ProbeSet 11751329_s_at) / Fold change (Aza/veh), VPS36 (ProbeSet 11739960_a_at) / Fold change (ACY-1035/veh), VPS36 (ProbeSet 11739960_a_at) / RFU SYPL1 (11715823_x_at) / Fold change /veh SYPL1 (11715823_x_at) / RFU IGFBP7 (11715501_s_at) / Fold change /veh IGFBP7 (11715501_s_at) / RFU REEP3 (11722064_at) / Fold change /veh REEP3 (11722064_at) / RFU IGLL1 (11728026_x_at) / Fold change /veh IGLL1 (11728026_x_at): dose or concentration left out as unconfirmed
# Conditions: ProbeSet 11744854_x_at; LIST B
smiles,measurement,value
Nc1ncn([C@@H]2O[C@H](CO)[C@@H](O)[C@H]2O)c(=O)n1 [azacitidine],"RFU, ZNF28",60.82 RFU
